# pEC50, pIC50: −log10 of the molar value.
# Tests used:
# cyclophilin A (CyPA) = cyclophilin A (CyPA) (Homo sapiens, UniProt P62937); settings: cited from earlier work
# [1] = system: cancer cell lines Huh7, HepG2 and OEM; settings: three cancer cell lines Huh7, HepG2 and OEM; WO2011/098805; cited from earlier work
# LIXC-002 = test: 7-day proliferation assay, Calcein AM staining; assay type: cell-based, human; settings: Example 5, one experiment
# Procedure: (§1) The cells were seeded in a 96-well plate, test compound or DMSO was added and the plate was incubated for additional four days or 7 days (Calcein AM assay). Viable cell counts were determined after detachment by treatment with trypsin either by trypan blue exclusion, flow cytometry, indirectly by measuring ATP content by addition of an ATP measuring reagent (CellTiter Glo), or Calcein AM, prepared according to the instruction of the manufacturer directly.
# (§2) XLfit software ((Fit model: Dose response one site/^F(x)[fit=(A+((B−A)/(1+((C/x)^D))))]) for curve fitting and IC50 calculation) was used for curve fitting and IC50 calculation.
# (§3) In vitro evaluation of a sanglifehrin macrocyclic analogue (1) for anticancer activity against human hepatocyte cancer cell lines in comparison with NV556 (10) a 7-day proliferation assay. The cell numbers were determined by Calcein AM staining as described in the methods section. Data are from one experiment with each cell line testing duplicate samples of 9 concentrations of each compound. Both compounds were included in each experiment.
# [2] = system: SK-Hep-1 tumour cell line; test: combined anticancer activity, monolayer proliferation assay; assay type: cell-based, human; settings: over certain concentration ranges
# Procedure: as §1
# In vitro evaluation of the combined anticancer activity of a sanglifehrin macrocyclic analogue with the anticancer agents sorafenib or doxorubicin against the SK-Hep-1 tumour cell line in a monolayer proliferation assay was carried out as described in the general methods above.
# A549 = test: monolayer proliferation assay, human tumour cell line panel; assay type: cell-based; settings: means of two experiments, 3 nM-25 μM
# Procedure: as §1
# (§4) Percentage inhibition in the ATP test was calculated by the formula described below: Growth inhibition %: 100−100×(Experimental−Blank)/(DMSO−Blank)
# as §2
# (§5) In vitro evaluation of compounds for anticancer activity in a panel of human tumour cell lines in a monolayer proliferation assay were carried out at Shanghai Chempartner.
# (§6) In vitro evaluation of a sanglifehrin macrocyclic analogue (NV556) for anticancer activity in a panel of 11 human tumour cell lines in a monolayer proliferation assay was carried out as described in the general methods above. Data are means from two independent experiments testing 10 concentrations (3 nM-25 μM) in duplicate.
# RPMI 8226 = test: as above; assay type: cell-based; settings: means of two experiments, 3 nM-25 μM
# Procedure: as §1, §4, §2, §5, §6
# A375 = test: as above; assay type: cell-based; settings: means of two experiments, 10 concentrations 3 nM-25 μM
# Procedure: as §1, §4, §2, §5, §6
# A2780 = test: as above; assay type: cell-based; settings: means of two experiments, 3 nM-25 μM
# Procedure: as §1, §4, §2, §5, §6
# HT-29 = test: as above; assay type: cell-based; settings: means of two experiments, 3 nM-25 μM
# Procedure: as §1, §4, §2, §5, §6
# U251 = test: as above; assay type: cell-based; settings: means of two experiments, 3 nM-25 μM
# Procedure: as §1, §4, §2, §5, §6
# PANC-1 = test: as above; assay type: cell-based; settings: means of two experiments, 3 nM-25 μM
# Procedure: as §1, §4, §2, §5, §6
# SK-Hep-1 = test: as above; assay type: cell-based; settings: means of two experiments, 3 nM-25 μM
# Procedure: as §1, §4, §2, §5, §6
# PC-3 = test: as above; assay type: cell-based; settings: means of two experiments, 3 nM-25 μM
# Procedure: as §1, §4, §2, §5, §6
# HCT 116 = test: as above; assay type: cell-based; settings: means of two experiments, 3 nM-25 μM
# Procedure: as §1, §4, §2, §5, §6
# MDA-MB-231 = test: as above; assay type: cell-based; settings: means of two experiments, 3 nM-25 μM
# Procedure: as §1, §4, §2, §5, §6
# Huh-7 = test: as above; assay type: cell-based; settings: means of two experiments, 3 nM-25 μM
# Procedure: as §1, §4, §2, §5, §6
# HepG2 = test: as above; assay type: cell-based; settings: means of two experiments, 3 nM-25 μM
# Procedure: as §1, §4, §2, §5, §6
# LIXC-066 = test: 7-day proliferation assay, Calcein AM staining; assay type: cell-based, human; settings: Example 5, one experiment
# Procedure: as §1, §2, §3
# as §3, with “the cyclophilin inhibitor alisporivir and the kinase inhibitor sorafenib in” for “NV556 (10)”, “one single” for “one”, “or means of two independent experiments” for “with each cell line”, “All three” for “Both”
# LIXC-086 = test: 7-day proliferation assay, Calcein AM staining; assay type: cell-based, human; settings: Example 5, one experiment
# Procedure: as §1, §2, §3
# as §3, with “the cyclophilin inhibitor alisporivir and the kinase inhibitor sorafenib in” for “NV556 (10)”, “one single” for “one”, “or means of two independent experiments” for “with each cell line”, “All three” for “Both”
# LIXC-006 = test: 7-day proliferation assay, Calcein AM staining; assay type: cell-based, human; settings: Example 5, one experiment
# Procedure: as §1, §2, §3
# as §3, with “the cyclophilin inhibitor alisporivir and the kinase inhibitor sorafenib in” for “NV556 (10)”, “one single” for “one”, “or means of two independent experiments” for “with each cell line”, “All three” for “Both”
# Hep3B2.1-7-Luc = test: 7-day proliferation assay, Calcein AM staining; assay type: cell-based, human; settings: Example 5, one experiment
# Procedure: as §1, §2, §3
# as §3, with “the cyclophilin inhibitor alisporivir and the kinase inhibitor sorafenib in” for “NV556 (10)”, “one single” for “one”, “or means of two independent experiments” for “with each cell line”, “All three” for “Both”
# [3] = read-out: Concentration giving 50% of maximum effect
# Chain of cyclophilin A (CyPA) (P62937 whole entry, species assumed): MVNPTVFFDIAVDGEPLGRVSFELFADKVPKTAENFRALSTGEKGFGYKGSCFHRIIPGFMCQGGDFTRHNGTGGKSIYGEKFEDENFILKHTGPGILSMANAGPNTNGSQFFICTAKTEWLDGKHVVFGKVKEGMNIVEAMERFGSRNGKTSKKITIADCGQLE
structure (smiles),measurement,setting,value
CC(=O)CCC1C(=O)NC(C(C)C)C(=O)NC(Cc2cccc(O)c2)C(=O)N2CCCC(N2)C(=O)OC(C(C)=CCO)CC=CC=CC(O)C(C)C1O (centres unmarked) [hydroxymacrocycle],affinity for CyPA,"cyclophilin A (CyPA); Sedrani et al., 2003",strong affinity
CC(=O)CCC1C(=O)NC(C(C)C)C(=O)NC(Cc2cccc(O)c2)C(=O)N2CCCC(N2)C(=O)OC(C(C)=CC=CC(=O)OC(C)(C)C)CC=CC=CC(O)C(C)C1O (centres unmarked) [compound 9],effect on cancer cell lines,[1],limited effect
CC(=O)CCC1C(=O)NC(C(C)C)C(=O)NC(Cc2cc(O)cc(F)c2)C(=O)N2CCCC(N2)C(=O)OC(C(C)=CC=CC(=O)N2CCCCO2)CC=CC=CC(O)C(C)C1O (centres unmarked) [NV556],pIC50,LIXC-002,7.41
same,"reduction in cell numbers, combination versus single compounds",[2]; combination with doxorubicin,stronger reduction in cell numbers than either compound alone
same,"reduction in cell numbers, combination versus single compounds",[2]; combination with sorafenib,stronger reduction in cell numbers than either compound alone
same,Maximum inhibition (%),A549,45.2%
same,pEC50,A549; [3],7.00
same,Maximum inhibition (%),RPMI 8226,87.1%
same,pEC50,RPMI 8226; [3],6.70
same,Maximum inhibition (%),A375,87.6%
same,pEC50,A375; [3],5.68
same,Maximum inhibition (%),A2780,83.7%
same,pEC50,A2780; [3],7.00
same,Maximum inhibition (%),HT-29,56.8%
same,Maximum inhibition (%),U251,62.0%
same,pEC50,U251; [3],4.77
same,Maximum inhibition (%),PANC-1,51.0%
same,pEC50,PANC-1; [3],5.89
same,Maximum inhibition (%),SK-Hep-1,94.6%
same,pEC50,SK-Hep-1; [3],7.00
same,Maximum inhibition (%),PC-3,45.3%
same,pEC50,PC-3; [3],6.52
same,Maximum inhibition (%),HCT 116,88.7%
same,pEC50,HCT 116; [3],7.00
same,Maximum inhibition (%),MDA-MB-231,49.9%
same,pEC50,MDA-MB-231; [3],6.30
same,Maximum inhibition (%),Huh-7,22.4%
same,pEC50,Huh-7; [3],7.52
same,Maximum inhibition (%),HepG2,80.6%
same,pEC50,HepG2; [3],7.00
same,pIC50,LIXC-066,6.61
same,pIC50,LIXC-086,5.02
same,pIC50,LIXC-006,7.21
same,pIC50,Hep3B2.1-7-Luc,7.27
"CC[C@H]1C[C@H](C)[C@@]2(NC1=O)O[C@@H](C[C@H](O)[C@@H](C)CC/C=C/C=C(\C)[C@@H]1C/C=C/C=C/[C@H](O)[C@H](C)[C@@H](O)[C@@H](CCC(C)=O)C(=O)N[C@@H](C(C)C)C(=O)N[C@@H](Cc3cccc(O)c3)C(=O)N3CCC[C@H](N3)C(=O)O1)[C@H](C)[C@H](O)[C@@H]2C [SfA, Sanglifehrin A]",affinity for CyPA compared to CsA,cyclophilin A (CyPA); higher affinity,approximately 20 fold

# Source: US10857150B2, “Use of sanglifehrin macrocyclic analogues as anticancer compounds” (NEUROVIVE PHARMACEUTICAL AB, priority 2016, dated 2020)
